In the supplement of paper PMC10307832:

Compound: C/C(=N\NC(=S)N1CCC1)/C2=CC=CC=N2
Assay: relative viability (nuclei count vs DMSO), 5 days (fraction); higher = more cells survive
Summary of the method: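 Viability was read as treated-well nuclei divided by vehicle-well nuclei, using the median across plates. Lung cancer cell lines in 1536-well plates were kept overnight at 37 °C, pinned with five √10-spaced library-drug doses, and after 5 days were Hoechst-stained, imaged at 4× and counted in MetaXpress. Plates passed only with control CV below 25% and at least one doubling.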

| Cell Line | relative viability (0.05 µM) | relative viability (0.1581 µM) | relative viability (0.5 µM) | relative viability (1.581 µM) | relative viability (5 µM) |
| --- | --- | --- | --- | --- | --- |
| 201T | 0.432 | 0.443 | 0.353 | 0.345 | 0.309 |
| A549 | 0.0587 | 0.0516 | 0.0603 | 0.0557 | 0.0345 |
| A-427 | 0.16 | 0.173 | 0.15 | 0.144 | 0.156 |
| ABC-1 | 0.38 | 0.303 | 0.245 | 0.259 | 0.361 |
| BEN | 0.278 | 0.237 | 0.276 | 0.23 | 0.227 |
| CAL-12T | 0.197 | 0.181 | 0.16 | 0.149 | 0.133 |
| COR-L23 | 0.148 | 0.133 | 0.138 | 0.113 | 0.102 |
| COR-L 105 | 0.287 | 0.364 | 0.342 | 0.245 | 0.292 |
| Calu-6 | 0.118 | 0.147 | 0.154 | 0.12 | 0.14 |
| ChaGo-K-1 | 0.204 | 0.227 | 0.2 | 0.18 | 0.186 |
| EBC-1 | 0.169 | 0.214 | 0.169 | 0.127 | 0.154 |
| EKVX | 0.129 | 0.138 | 0.118 | 0.153 | 0.161 |
| EMC-BAC-2 | 0.215 | 0.237 | 0.219 | 0.189 | 0.207 |
| EPLC-272H | 0.163 | 0.161 | 0.124 | 0.0926 | 0.136 |
| H3255 | 0.316 | 0.331 | 0.273 | 0.254 | 0.274 |
| HARA | 0.193 | 0.21 | 0.138 | 0.143 | 0.138 |
| HCC-15 | 0.0583 | 0.0886 | 0.0939 | 0.094 | 0.0906 |
| HCC-44 | 0.351 | 0.279 | 0.299 | 0.246 | 0.24 |
| HCC-78 | 0.459 | 0.472 | 0.355 | 0.232 | 0.234 |
| HCC-366 | 0.0382 | 0.0453 | 0.0381 | 0.0627 | 0.0401 |
| HCC-827 | 0.44 | 0.359 | 0.316 | 0.275 | 0.205 |
| HOP-62 | 0.111 | 0.0963 | 0.114 | 0.11 | 0.114 |
| IA-LM | 0.0692 | 0.0771 | 0.0669 | 0.0644 | 0.0517 |
| LC-2-ad | 0.209 | 0.242 | 0.217 | 0.163 | 0.231 |
| LCLC-97TM1 | 0.0886 | 0.109 | 0.0593 | 0.0801 | 0.0822 |
| LCLC-103H | 0.336 | 0.331 | 0.347 | 0.335 | 0.357 |
| LK-2 | 0.172 | 0.182 | 0.18 | 0.14 | 0.176 |

| Cell Line | relative viability (0.05 µM) | relative viability (0.1581 µM) | relative viability (0.5 µM) | relative viability (1.581 µM) | relative viability (5 µM) |
| --- | --- | --- | --- | --- | --- |
| LOU-NH91 | 0.5 | 0.572 | 0.553 | 0.42 | 0.464 |
| LU99A | 0.161 | 0.209 | 0.162 | 0.145 | 0.182 |
| LXF-289 | 0.276 | 0.313 | 0.278 | 0.292 | 0.119 |
| NCI-H23 | 0.17 | 0.196 | 0.187 | 0.154 | 0.172 |
| NCI-H322M | 0.337 | 0.337 | 0.352 | 0.329 | 0.35 |
| NCI-H358 | 0.132 | 0.125 | 0.143 | 0.119 | 0.114 |
| NCI-H441 | 0.233 | 0.175 | 0.185 | 0.145 | 0.123 |
| NCI-H460 | 0.0678 | 0.0619 | 0.0798 | 0.0529 | 0.0177 |
| NCI-H520 | 0.164 | 0.17 | 0.141 | 0.16 | 0.172 |
| NCI-H522 | 0.334 | 0.389 | 0.351 | 0.346 | 0.358 |
| NCI-H596 | 0.307 | 0.311 | 0.257 | 0.222 | 0.263 |
| NCI-H647 | 0.114 | 0.116 | 0.136 | 0.115 | 0.0991 |
| NCI-H650 | 0.22 | 0.232 | 0.222 | 0.196 | 0.175 |
| NCI-H661 | 0.288 | 0.32 | 0.317 | 0.255 | 0.262 |
| NCI-H727 | 0.25 | 0.235 | 0.245 | 0.27 | 0.272 |
| NCI-H838 | 0.247 | 0.255 | 0.279 | 0.179 | 0.185 |
| NCI-H1299 | 0.1 | 0.12 | 0.186 | 0.185 | 0.145 |
| NCI-H1355 | 0.204 | 0.216 | 0.21 | 0.197 | 0.214 |
| NCI-H1395 | 0.423 | 0.41 | 0.336 | 0.344 | 0.383 |
| NCI-H1437 | 0.242 | 0.235 | 0.206 | 0.173 | 0.155 |
| NCI-H1563 | 0.62 | 0.6 | 0.504 | 0.538 | 0.522 |
| NCI-H1648 | 0.317 | 0.278 | 0.25 | 0.317 | 0.304 |
| NCI-H1650 | 0.18 | 0.26 | 0.183 | 0.173 | 0.199 |
| NCI-H1651 | 0.19 | 0.175 | 0.152 | 0.11 | 0.105 |
| NCI-H1666 | 0.433 | 0.404 | 0.369 | 0.349 | 0.329 |
| NCI-H1703 | 0.0684 | 0.0887 | 0.112 | 0.126 | 0.161 |
| NCI-H1734 | 0.184 | 0.186 | 0.189 | 0.13 | 0.116 |

| Cell Line | relative viability (0.05 µM) | relative viability (0.1581 µM) | relative viability (0.5 µM) | relative viability (1.581 µM) | relative viability (5 µM) |
| --- | --- | --- | --- | --- | --- |
| NCI-H1755 | 0.353 | 0.332 | 0.321 | 0.303 | 0.282 |
| NCI-H1792 | 0.362 | 0.234 | 0.227 | 0.184 | 0.134 |
| NCI-H1793 | 0.181 | 0.215 | 0.176 | 0.16 | 0.168 |
| NCI-H1915 | 0.237 | 0.216 | 0.199 | 0.179 | 0.178 |
| NCI-H1944 | 0.263 | 0.179 | 0.19 | 0.161 | 0.151 |
| NCI-H1975 | 0.178 | 0.179 | 0.168 | 0.158 | 0.185 |
| NCI-H1993 | 0.472 | 0.529 | 0.593 | 0.499 | 0.577 |
| NCI-H2009 | 0.122 | 0.17 | 0.166 | 0.156 | 0.138 |
| NCI-H2023 | 0.0831 | 0.0809 | 0.0814 | 0.0675 | 0.0747 |
| NCI-H2085 | 0.359 | 0.321 | 0.357 | 0.299 | 0.313 |
| NCI-H2087 | 0.16 | 0.218 | 0.19 | 0.165 | 0.138 |
| NCI-H2126 | 0.236 | 0.246 | 0.214 | 0.197 | 0.21 |
| NCI-H2170 | 0.391 | 0.282 | 0.268 | 0.198 | 0.176 |
| NCI-H2228 | 0.192 | 0.217 | 0.21 | 0.118 | 0.187 |
| NCI-H2342 | 0.274 | 0.277 | 0.266 | 0.239 | 0.259 |
| NCI-H2347 | 0.315 | 0.346 | 0.34 | 0.256 | 0.313 |
| NCI-H2405 | 0.294 | 0.296 | 0.288 | 0.274 | 0.283 |
| NCI-H3122 | 0.13 | 0.121 | 0.129 | 0.168 | 0.141 |
| PC-3 [JPC-3] | 0.473 | 0.459 | 0.358 | 0.309 | 0.231 |
| PC-14 | 0.0727 | 0.104 | 0.0714 | 0.0553 | 0.064 |
| RERF-LC-KJ | 0.263 | 0.262 | 0.252 | 0.244 | 0.248 |
| SK-LU-1 | 0.24 | 0.233 | 0.25 | 0.168 | 0.208 |
| SK-MES-1 | 0.197 | 0.231 | 0.192 | 0.171 | 0.19 |
| SW 900 | 0.147 | 0.135 | 0.0841 | 0.127 | 0.188 |
| SW 1573 | 0.119 | 0.115 | 0.143 | 0.102 | 0.0766 |
| UMC-11 | 0.262 | 0.241 | 0.23 | 0.193 | 0.175 |
